One molecule from ChEMBL document CHEMBL2021846, “Symplocin A, a linear peptide from the Bahamian cyanobacterium Symploca sp. Configurational analysis of N,N-dimethylamino acids by chiral-phase HPLC of naphthacyl esters” (J Nat Prod, 2012) can be followed below.

The term IC50 denotes the concentration that inhibits the measured activity by half. Low values mean higher potency, high ones lower potency.

Active and inactive are the calls of the source. The rule behind the calls is not given here.

One test concerns HCT-116. In words: Cytotoxicity against human HCT116 cells. The class given is functional, cell-based.
For a further test, the target named is T1, Cathepsin E (Homo sapiens, UniProt P14091).
T1 sequence (P14091 whole entry): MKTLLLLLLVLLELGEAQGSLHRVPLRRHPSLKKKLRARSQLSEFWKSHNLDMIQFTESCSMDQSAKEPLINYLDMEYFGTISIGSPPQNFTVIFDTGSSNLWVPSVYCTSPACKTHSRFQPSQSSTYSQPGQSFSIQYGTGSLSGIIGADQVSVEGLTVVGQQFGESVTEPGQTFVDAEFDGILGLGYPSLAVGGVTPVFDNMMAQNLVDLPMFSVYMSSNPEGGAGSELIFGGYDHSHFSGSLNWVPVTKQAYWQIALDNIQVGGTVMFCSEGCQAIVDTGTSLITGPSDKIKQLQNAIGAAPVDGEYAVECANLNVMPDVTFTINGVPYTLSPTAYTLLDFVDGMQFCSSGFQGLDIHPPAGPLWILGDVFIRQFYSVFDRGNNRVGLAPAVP
In words: Inhibition of cathepsin E.

Consider `CC[C@@H](C)[C@H](C(=O)O[C@@H](C(=O)N[C@@H](Cc1ccc(O)cc1)C(=O)N[C@@H](CO)C(=O)N[C@@H](CC(C)C)[C@H](O)CC(=O)N[C@H](C(=O)NCC(=O)N(C)[C@H](Cc1ccccc1)C(=O)N1CCC[C@H]1C(=O)OC)C(C)C)C(C)C)N(C)C` [SYMPLOCIN A], for which the outcome in the test on HCT-116 was inactive. The molecule further came in with a half-maximal inhibitory concentration (IC50) against Cathepsin E of 0.3 nM.
